Reference: PubChem BioAssay (NCI)
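Test compounds were applied to cells in 96-well plates for 48 hours at 5 doses. TGI marks complete inhibition of growth.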

How the values were obtained:
Experiment in all cases: NCI tumour cell line growth inhibition, 48 h
MALME-3M melanoma = test system: MALME-3M melanoma
NCI-H522 lung = test system: NCI-H522 lung
HS 578T breast = test system: HS 578T breast
NCI-H460 lung = test system: NCI-H460 lung
CCRF-CEM leukemia = test system: CCRF-CEM leukemia
DU-145 prostate = test system: DU-145 prostate
OVCAR-5 ovarian = test system: OVCAR-5 ovarian
SN12C renal = test system: SN12C renal
MDA-N = test system: MDA-N
CAKI-1 renal = test system: CAKI-1 renal
MDA-MB-435 = test system: MDA-MB-435
SK-OV-3 ovarian = test system: SK-OV-3 ovarian
COLO 205 colon = test system: COLO 205 colon
SNB-75 CNS = test system: SNB-75 CNS
HT29 colon = test system: HT29 colon
TK-10 renal = test system: TK-10 renal
SF-295 CNS = test system: SF-295 CNS
SNB-19 CNS = test system: SNB-19 CNS
M14 melanoma = test system: M14 melanoma

Work on `O=C(/C=C/c1ccc(O)c(O)c1)NC(COC(=O)/C=C/c1ccc(O)c(O)c1)C(=O)O` (stereo not given) yielded a TGI (MALME-3M melanoma) of over 100 µM, a TGI (NCI-H522 lung) of over 100 µM and a TGI (HS 578T breast) of over 100 µM. For the same compound, the TGI (NCI-H460 lung) was over 100 µM, the TGI (CCRF-CEM leukemia) was over 100 µM and the TGI (DU-145 prostate) was over 100 µM. It also gave a TGI (OVCAR-5 ovarian) of over 100 µM, a TGI (SN12C renal) of over 100 µM and a TGI (MDA-N) of over 100 µM. For the same compound, the TGI (CAKI-1 renal) was over 100 µM, the TGI (MDA-MB-435) was over 100 µM and the TGI (SK-OV-3 ovarian) was over 100 µM. The TGI (COLO 205 colon) was over 100 µM, the TGI (SNB-75 CNS) was over 100 µM and the TGI (HT29 colon) was over 100 µM. The TGI (TK-10 renal) was over 100 µM, the TGI (SF-295 CNS) was over 100 µM and the TGI (SNB-19 CNS) was over 100 µM. The TGI (M14 melanoma) was over 100 µM.
`COc1ccccc1N1C(=O)CSC1c1cc(OC)c(OC)c(OC)c1` (stereo not given) gave a TGI (MALME-3M melanoma) of over 100 µM, a TGI (NCI-H522 lung) of over 76.8 µM and a TGI (HS 578T breast) of over 100 µM. For the same compound, the TGI (NCI-H460 lung) was over 100 µM, the TGI (CCRF-CEM leukemia) was 76.6 µM and the TGI (DU-145 prostate) was over 100 µM. For the same compound, the TGI (OVCAR-5 ovarian) was over 100 µM, the TGI (SN12C renal) was over 100 µM and the TGI (MDA-N) was 44.7 µM. For the same compound, the TGI (CAKI-1 renal) was over 100 µM, the TGI (MDA-MB-435) was 40 µM and the TGI (SK-OV-3 ovarian) was over 100 µM. The TGI (COLO 205 colon) was over 100 µM, the TGI (SNB-75 CNS) was over 100 µM and the TGI (HT29 colon) was over 100 µM. It also gave a TGI (TK-10 renal) of over 100 µM, a TGI (SF-295 CNS) of over 100 µM and a TGI (SNB-19 CNS) of over 20.8 µM. For the same compound, the TGI (M14 melanoma) was over 100 µM.
`COc1cc2c(cc1O)Cc1c-2[n+](C)cc2cc(OC)c(OC)cc12` was tested, and the TGI (MALME-3M melanoma) was over 100 µM, the TGI (NCI-H522 lung) was over 100 µM and the TGI (HS 578T breast) was over 100 µM. The TGI (NCI-H460 lung) was over 100 µM, the TGI (CCRF-CEM leukemia) was over 24.9 µM and the TGI (DU-145 prostate) was over 100 µM. The TGI (OVCAR-5 ovarian) was over 100 µM, the TGI (SN12C renal) was over 100 µM and the TGI (MDA-N) was over 100 µM. For the same compound, the TGI (CAKI-1 renal) was over 100 µM, the TGI (MDA-MB-435) was over 100 µM and the TGI (SK-OV-3 ovarian) was over 100 µM. The TGI (COLO 205 colon) was over 100 µM, the TGI (SNB-75 CNS) was over 100 µM and the TGI (HT29 colon) was over 100 µM. For the same compound, the TGI (TK-10 renal) was over 100 µM, the TGI (SF-295 CNS) was over 100 µM and the TGI (SNB-19 CNS) was over 50 µM. The TGI (M14 melanoma) was over 100 µM.
`CCC(c1ccc(OC)cc1)C1NC(=S)NC1=O` (stereo not given) gave a TGI (MALME-3M melanoma) of over 50 µM, a TGI (NCI-H522 lung) of over 50 µM and a TGI (HS 578T breast) of over 50 µM. The TGI (NCI-H460 lung) was over 50 µM, the TGI (CCRF-CEM leukemia) was over 50 µM and the TGI (DU-145 prostate) was over 50 µM. The TGI (OVCAR-5 ovarian) was over 50 µM, the TGI (SN12C renal) was over 50 µM and the TGI (MDA-N) was over 50 µM. The TGI (CAKI-1 renal) was over 50 µM, the TGI (MDA-MB-435) was over 50 µM and the TGI (SK-OV-3 ovarian) was over 50 µM. It also gave a TGI (COLO 205 colon) of over 50 µM, a TGI (SNB-75 CNS) of over 50 µM and a TGI (HT29 colon) of over 50 µM. For the same compound, the TGI (TK-10 renal) was over 50 µM, the TGI (SF-295 CNS) was over 50 µM and the TGI (SNB-19 CNS) was over 50 µM. The TGI (M14 melanoma) was over 50 µM.
Work on `COC(=O)[C@]1(C)CCC[C@]2(C)[C@@H](CCC(=O)C(C)C)[C@]3(C=O)O[C@@H]3C[C@H]21` yielded a TGI (MALME-3M melanoma) of over 100 µM, a TGI (NCI-H522 lung) of 46.6 µM and a TGI (HS 578T breast) of over 100 µM. For the same compound, the TGI (NCI-H460 lung) was over 100 µM, the TGI (CCRF-CEM leukemia) was over 100 µM and the TGI (DU-145 prostate) was over 100 µM. The TGI (OVCAR-5 ovarian) was over 100 µM, the TGI (SN12C renal) was over 100 µM and the TGI (MDA-N) was 75.1 µM. For the same compound, the TGI (CAKI-1 renal) was 31.9 µM, the TGI (MDA-MB-435) was 99.6 µM and the TGI (SK-OV-3 ovarian) was over 100 µM. For the same compound, the TGI (COLO 205 colon) was over 100 µM, the TGI (SNB-75 CNS) was 63.9 µM and the TGI (HT29 colon) was over 100 µM. The TGI (TK-10 renal) was over 100 µM, the TGI (SF-295 CNS) was over 100 µM and the TGI (SNB-19 CNS) was over 100 µM. The TGI (M14 melanoma) was over 100 µM.
`COc1ccc2c(c1)-c1nc(=O)n(CCCN(C)C)c3ccc([N+](=O)[O-])c(c13)N2` gave a TGI (MALME-3M melanoma) of 3.28 µM, a TGI (NCI-H522 lung) of 1.93 µM and a TGI (HS 578T breast) of 4.99 µM. It also gave a TGI (NCI-H460 lung) of 15.1 µM, a TGI (CCRF-CEM leukemia) of 3.87 µM and a TGI (DU-145 prostate) of 17.1 µM. The TGI (OVCAR-5 ovarian) was 4.89 µM, the TGI (SN12C renal) was 13.8 µM and the TGI (MDA-N) was 19.2 µM. For the same compound, the TGI (CAKI-1 renal) was 5.26 µM, the TGI (MDA-MB-435) was 32.2 µM and the TGI (SK-OV-3 ovarian) was 17.3 µM. For the same compound, the TGI (COLO 205 colon) was 18.4 µM, the TGI (SNB-75 CNS) was 8.51 µM and the TGI (HT29 colon) was 12.2 µM. For the same compound, the TGI (TK-10 renal) was 7.17 µM, the TGI (SF-295 CNS) was 20.8 µM and the TGI (SNB-19 CNS) was 8.58 µM. The TGI (M14 melanoma) was 3.69 µM.
`CCCCCCCCCCCCCCCC(=O)Nc1ccn(C2CCC(COP(=O)(O)OCC3OC(n4cc(F)c(=O)[nH]c4=O)CC3OC(C)=O)O2)c(=O)n1` (stereo not given) was tested, and the TGI (MALME-3M melanoma) was 53.3 µM, the TGI (NCI-H522 lung) was 27.7 µM and the TGI (HS 578T breast) was over 100 µM. For the same compound, the TGI (NCI-H460 lung) was over 100 µM, the TGI (CCRF-CEM leukemia) was 19.7 µM and the TGI (DU-145 prostate) was over 100 µM. It also gave a TGI (OVCAR-5 ovarian) of over 74.5 µM, a TGI (SN12C renal) of over 73.7 µM and a TGI (MDA-N) of 50.4 µM. For the same compound, the TGI (CAKI-1 renal) was over 42.5 µM, the TGI (MDA-MB-435) was 44.2 µM and the TGI (SK-OV-3 ovarian) was over 90.2 µM. It also gave a TGI (COLO 205 colon) of 28.5 µM, a TGI (SNB-75 CNS) of over 67.1 µM and a TGI (HT29 colon) of 32.4 µM. The TGI (TK-10 renal) was over 76.7 µM, the TGI (SF-295 CNS) was 29.6 µM and the TGI (SNB-19 CNS) was 35.2 µM. It also gave a TGI (M14 melanoma) of 28.1 µM.
`COCC12CCC(OC)C34C5CC6(O)C(OC)C=C(C5C6OC(=O)c5ccccc5)C(C(OC)C13)C4N(C)C2` (stereo not given) showed a TGI (MALME-3M melanoma) of over 100 µM, a TGI (NCI-H522 lung) of over 100 µM and a TGI (HS 578T breast) of over 100 µM. The TGI (NCI-H460 lung) was over 100 µM, the TGI (CCRF-CEM leukemia) was over 100 µM and the TGI (DU-145 prostate) was over 100 µM. For the same compound, the TGI (OVCAR-5 ovarian) was over 100 µM, the TGI (SN12C renal) was over 100 µM and the TGI (MDA-N) was over 100 µM. For the same compound, the TGI (CAKI-1 renal) was over 100 µM, the TGI (MDA-MB-435) was over 100 µM and the TGI (SK-OV-3 ovarian) was over 100 µM. It also gave a TGI (COLO 205 colon) of over 100 µM, a TGI (SNB-75 CNS) of over 100 µM and a TGI (HT29 colon) of over 100 µM. For the same compound, the TGI (TK-10 renal) was over 100 µM, the TGI (SF-295 CNS) was over 100 µM and the TGI (SNB-19 CNS) was over 100 µM. For the same compound, the TGI (M14 melanoma) was over 100 µM.
`CC1(C)SCc2nc3ccccc3n21` showed a TGI (MALME-3M melanoma) of over 100 µM, a TGI (NCI-H522 lung) of over 100 µM and a TGI (HS 578T breast) of over 100 µM. It also gave a TGI (NCI-H460 lung) of over 100 µM, a TGI (CCRF-CEM leukemia) of over 100 µM and a TGI (DU-145 prostate) of over 100 µM. For the same compound, the TGI (OVCAR-5 ovarian) was over 100 µM, the TGI (SN12C renal) was over 100 µM and the TGI (MDA-N) was over 100 µM. The TGI (CAKI-1 renal) was over 100 µM, the TGI (MDA-MB-435) was over 100 µM and the TGI (SK-OV-3 ovarian) was over 100 µM. It also gave a TGI (COLO 205 colon) of over 100 µM, a TGI (SNB-75 CNS) of 3.56 µM and a TGI (HT29 colon) of over 100 µM. For the same compound, the TGI (TK-10 renal) was over 100 µM, the TGI (SF-295 CNS) was over 100 µM and the TGI (SNB-19 CNS) was over 100 µM. It also gave a TGI (M14 melanoma) of over 100 µM.
`Cc1cccc2c1c(=O)c1c(O)cc3c(c1n2C)C=CC(C)(C)O3` showed a TGI (MALME-3M melanoma) of over 100 µM, a TGI (NCI-H522 lung) of over 100 µM and a TGI (HS 578T breast) of over 100 µM. It also gave a TGI (NCI-H460 lung) of over 100 µM, a TGI (CCRF-CEM leukemia) of over 100 µM and a TGI (DU-145 prostate) of over 100 µM. The TGI (OVCAR-5 ovarian) was over 100 µM, the TGI (SN12C renal) was over 100 µM and the TGI (MDA-N) was over 100 µM. It also gave a TGI (CAKI-1 renal) of over 100 µM, a TGI (MDA-MB-435) of over 100 µM and a TGI (SK-OV-3 ovarian) of over 100 µM. It also gave a TGI (COLO 205 colon) of over 100 µM, a TGI (SNB-75 CNS) of over 100 µM and a TGI (HT29 colon) of over 100 µM. It also gave a TGI (TK-10 renal) of over 100 µM, a TGI (SF-295 CNS) of over 100 µM and a TGI (SNB-19 CNS) of over 100 µM. For the same compound, the TGI (M14 melanoma) was over 100 µM.
